Measurements from article PMC5015106 (Scientific Reports, 2016).
Converted amounts (≈) assume the structure as drawn. Numbered stars: 1 amine (or outer) side, 2 acyl side, 3 side chain; on linkers, the order of the positions; unused ones are H or OH. Bridge positions count the residues as written; N and C are the ends. Square brackets hold non-standard residues; d marks the D form. Peptide text beside a SMILES is read from it. ξ: configuration not given here. X1 = O=C([C@H](CCc1ccc(O)c(Cl)c1)N[*:1])[*:2]; NMehTyr = CN[C@@H](CCc1ccc(O)cc1)C(=O)O; Nle(6-Ph) = N[C@@H](CCCCc1ccccc1)C(=O)O; d(aIle) = CC[C@H](C)[C@@H](N)C(=O)O; hTyr = N[C@@H](CCc1ccc(O)cc1)C(=O)O; hhPhe = N[C@@H](CCCc1ccccc1)C(=O)O; aIle = CC[C@@H](C)[C@H](N)C(=O)O; hPhe = N[C@@H](CCc1ccccc1)C(=O)O; Ile(3ξ) = CCC(C)[C@H](N)C(=O)O; NMeN = CN[C@@H](CC(N)=O)C(=O)O; NMeS = CN[C@@H](CO)C(=O)O; NMeA = CN[C@@H](C)C(=O)O; CO = O=C([*:1])[*:2]; Sar = CNCC(=O)O

Target: carboxypeptidase A
Assay: not given
Conditions: cited from earlier work

Compound	IC50 carboxypeptidase A
CC[C@H](C)[C@@H]1NC(=O)[C@H](NC(=O)N[C@@H](CCCNC(=N)N)C(=O)O)CCCCNC(=O)[C@H]([C@@H](C)CC)NC(=O)[C@H](CCc2ccc(O)cc2)N(C)C(=O)[C@H](CCc2ccc(O)cc2)NC1=O [anabaenopeptin H] ({Arg-CO}-[dK]I[hTyr][NMehTyr]I; lactam 1-C)	3.4 µg/mL (≈ 3.68 µM)

Same assay, conditions: in words; cited from earlier work

Compound	inhibitory concentrations carboxypeptidase A
CC[C@H](C)[C@@H]1NC(=O)[C@H](NC(=O)N[C@@H](Cc2ccc(O)cc2)C(=O)O)CCCCNC(=O)[C@H]([C@@H](C)CC)NC(=O)[C@H](CCc2ccc(O)cc2)N(C)C(=O)[C@H](CCc2ccc(O)cc2)NC1=O [anabaenopeptin G] ({Tyr-CO}-[dK]I[hTyr][NMehTyr]I; lactam 1-C)	nanomolar
CC[C@H](C)[C@H](NC(=O)N[C@@H]1CCCCNC(=O)[C@H](CC(C)C)NC(=O)[C@H](C)N(C)C(=O)[C@H](CCc2ccc(O)cc2)NC(=O)[C@H](C(C)C)NC1=O)C(=O)O [anabaenopeptin I] ({Ile-CO}-[dK]V[hTyr][NMeA]L; lactam 1-C)	nanomolar
CC[C@H](C)[C@H](NC(=O)N[C@@H]1CCCCNC(=O)[C@H](Cc2ccccc2)NC(=O)[C@H](C)N(C)C(=O)[C@H](CCc2ccc(O)cc2)NC(=O)[C@H](C(C)C)NC1=O)C(=O)O [anabaenopeptin J] ({Ile-CO}-[dK]V[hTyr][NMeA]F; lactam 1-C)	nanomolar

Target: T1, TAFIa (Homo sapiens, UniProt Q96IY4)
T1 construct: purchased American Diagnostica Pr; No. 874
T1 sequence (Q96IY4 115-423): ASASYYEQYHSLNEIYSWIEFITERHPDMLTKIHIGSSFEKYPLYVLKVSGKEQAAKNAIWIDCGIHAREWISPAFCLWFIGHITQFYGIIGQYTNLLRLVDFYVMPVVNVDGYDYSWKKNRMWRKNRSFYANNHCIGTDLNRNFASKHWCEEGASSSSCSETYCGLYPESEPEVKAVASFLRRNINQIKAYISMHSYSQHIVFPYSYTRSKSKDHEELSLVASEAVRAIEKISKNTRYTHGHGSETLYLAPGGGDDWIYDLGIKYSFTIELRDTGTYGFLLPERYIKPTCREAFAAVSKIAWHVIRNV
Assay: biochemical
Conditions: not given

Compound	IC50
CCC(C)[C@@H]1NC(=O)[C@H](NC(=O)N[C@@H](CCCCN)C(=O)O)CCCCNC(=O)[C@H](Cc2ccccc2)NC(=O)[C@H](CC(N)=O)N(C)C(=O)[C@H](CCCc2ccccc2)NC1=O (some centres unmarked) [Compound 4, Anabaenopeptin SA4] ({Lys-CO}-[dK][Ile(3ξ)][hhPhe][NMeN]F; lactam 1-C)	3.4 nM
CC[C@H](C)[C@@H]1NC(=O)[C@H](CCc2ccc(O)cc2)N(C)C(=O)[C@H](CCc2ccc(O)cc2)NC(=O)[C@H](C(C)C)NC(=O)[C@H](NC(=O)N[C@@H](Cc2ccc(O)cc2)C(=O)O)CCCCNC1=O [Compound 15, Anabaenopeptine 915] ({Tyr-CO}-[dK]V[hTyr][NMehTyr]I; lactam 1-C)	530 nM
CC[C@H](C)[C@@H]1NC(=O)[C@H](CCc2ccc(O)cc2)N(C)C(=O)[C@H](CCc2ccc(O)cc2)NC(=O)[C@H](C(C)C)NC(=O)[C@H](NC(=O)N[C@@H](CCCNC(=N)N)C(=O)O)CCCCNC1=O [Compound 16, Anabaenopeptin 908] ({Arg-CO}-[dK]V[hTyr][NMehTyr]I; lactam 1-C)	1.8 nM

Same assay, conditions: enzymatic inhibition assay, duplicate determination; read-out: IC50 in nM against TAFIa

Compound	IC50
CC[C@@H](C)[C@H](NC(=O)N[C@@H]1CCCCNC(=O)[C@H](Cc2ccccc2)NC(=O)[C@H](CC(N)=O)N(C)C(=O)[C@H](CCCCc2ccccc2)NC(=O)[C@@H]([C@@H](C)CC)NC1=O)C(=O)O [Compound 8, Anabaenopeptin SA8] ({aIle-CO}-[dK][d(aIle)][Nle(6-Ph)][NMeN]F; lactam 1-C)	4800 nM
CC[C@@H](C)C1NC(=O)[C@H](NC(=O)N[C@@H](Cc2ccccc2)C(=O)O)CCCCNC(=O)[C@H](CCc2ccccc2)NC(=O)CN(C)C(=O)[C@H](CCc2ccc(O)c(Cl)c2)NC1=O (some centres unmarked) [Compound 9, Anabaenopeptin SA9]	31000 nM
CC(C)[C@H]1NC(=O)[C@H](NC(=O)N[C@@H](Cc2ccccc2)C(=O)O)CCCCNC(=O)[C@H](CCc2ccc(O)c(Cl)c2)NC(=O)CN(C)C(=O)[C@H](CCc2ccc(O)cc2)NC1=O [Compound 10, Anabaenopeptin SA10] ({Phe-CO}-[dK][dV][hTyr][Sar][X1]; lactam 1-C)	7000 nM
CC[C@@H](C)C1NC(=O)[C@H](NC(=O)N[C@@H](Cc2ccccc2)C(=O)O)CCCCNC(=O)[C@H](CCc2ccc(O)c(Cl)c2)NC(=O)CN(C)C(=O)[C@H](CCc2ccc(O)cc2)NC1=O (some centres unmarked) [Compound 11, Anabaenopeptin SA11]	15000 nM
CC(C)[C@@H]1NC(=O)[C@H](NC(=O)N[C@@H](Cc2ccc(O)cc2)C(=O)O)CCCCNC(=O)[C@H](Cc2ccccc2)NC(=O)[C@H](C)N(C)C(=O)[C@H](CCc2ccc(O)cc2)NC1=O [Compound 13, Anabaenopeptin A] ({Tyr-CO}-[dK]V[hTyr][NMeA]F; lactam 1-C)	440 nM
CC[C@H](C)[C@H]1NC(=O)[C@H](NC(=O)N[C@@H](CCCCN)C(=O)O)CCCCNC(=O)[C@H](Cc2ccccc2)NC(=O)[C@H](C)N(C)C(=O)[C@H](CCc2ccc(O)cc2)NC1=O [Compound 17, Anabaenopeptin SA3] ({Lys-CO}-[dK][d(aIle)][hTyr][NMeA]F; lactam 1-C)	2.1 nM
CC[C@@H](C)[C@H](NC(=O)N[C@@H]1CCCCNC(=O)[C@H](Cc2ccccc2)NC(=O)[C@H](CC(N)=O)N(C)C(=O)[C@H](CCc2ccccc2)NC(=O)[C@H]([C@H](C)CC)NC1=O)C(=O)O [Compound 18, Anabaenopeptin SA6] ({aIle-CO}-[dK][aIle][hPhe][NMeN]F; lactam 1-C)	51000 nM
CC(C)[C@H]1NC(=O)[C@H](NC(=O)N[C@@H](CCCN=C(N)N)C(=O)O)CCCCNC(=O)[C@H](Cc2ccccc2)NC(=O)[C@H](CO)N(C)C(=O)[C@H](CCc2ccc(O)cc2)NC1=O [Compound 19, Anabaenopeptin SA2] ({Arg-CO}-[dK][dV][hTyr][NMeS]F; lactam 1-C)	16 nM
CC(C)[C@H]1NC(=O)[C@H](NC(=O)N[C@@H](Cc2ccc(O)cc2)C(=O)O)CCCCNC(=O)[C@H](Cc2ccccc2)NC(=O)[C@H](CO)N(C)C(=O)[C@H](CCc2ccc(O)cc2)NC1=O [Compound 20, Anabaenopeptin SA13] ({Tyr-CO}-[dK][dV][hTyr][NMeS]F; lactam 1-C)	2500 nM
Anabaenopeptin SA1 [Compound 5]	2.2 nM
Anabaenopeptin SA5 [Compound 6]	790 nM
Anabaenopeptin SA7 [Compound 7]	13000 nM
Anabaenopeptin SA12 [Compound 12]	4300 nM
